In US10633379B2, “Bromodomain inhibitors” (AbbVie Inc., priority 2016, dated 2020) one finds Ki data, which are given here for 20 molecules.

In one test the target is BRD4 (BDI_K57-E168) (Homo sapiens (Human), UniProt O60885). Nature of the test: TR-FRET bromodomain binding assay, BRD4 BDI. Particulars: mean Ki, calculated from IC50, probe Kd and probe concentration. Here is the method:
(§1) A time-resolved fluorescence resonance energy transfer (TR-FRET) assay was used to determine the affinities of compounds of the Examples listed in Table 1 for each bromodomain of BRD4. His-tagged first (BDI: amino acids K57-E168) and second (BDII: amino acids E352-M457) bromodomains of BRD4 were expressed and purified. An Alexa647-labeled BET-inhibitor was used as the fluorescent probe in the assay.
(§2) Compound dilution series were prepared in DMSO via an approximately 3-fold serial dilution. Compound dilutions were added directly into white, low-volume assay plates (Perkin Elmer Proxiplate 384 Plus#6008280) using a Labcyte Echo in conjunction with Labcyte Access and Thermo Multidrop CombinL robotics. Compounds were then suspended in eight microliters (μL) of assay buffer (20 mM Sodium Phosphate, pH 6.0, 50 mM NaCl, 1 mM Ethylenediaminetetraacetic acid disodium salt dihydrate, 0.01% Triton X-100, 1 mM DL-Dithiothreitol) containing His-tagged bromodomain, Europium-conjugated anti-His antibody (Invitrogen PV5596) and Alexa-647-conjugated probe.
(§3) The final concentration of 1× assay mixture contained 2% DMSO, 12 nM His tagged BRD4 (BDI_K57-E168) and 100 nM probe or 4 nM His tagged BRD4 (BDII_E352-M457) and 30 nM probe, and 1 nM Europium-conjugated anti-His-tag antibody, and compound concentrations in the range of: 49.02 μM-0.61 nM or 0.98 μM-0.15 nM.
(§4) After a one-hour equilibration at room temperature, TR-FRET ratios were determined using an Envision multilabel plate reader (Ex 340, Em 495/520).
(§5) TR-FRET data were normalized to the means of 24 no-compound controls (“high”) and 8 controls containing 1 μM un-labeled probe (“low”). Percent inhibition was plotted as a function of compound concentration and the data were fit with the 4 parameter logistic equation to obtain IC50s. Inhibition constants (Ki) were calculated from the IC50s, probe Kd and probe concentration.

A further test concerns the target BRD4 (BDII_E352-M457) (Homo sapiens (Human), UniProt O60885). Nature of the test: TR-FRET bromodomain binding assay, BRD4 BDII. Particulars: mean Ki, calculated from IC50, probe Kd and probe concentration. Here is the method: as §1, §2, §3, §4, §5

In general, Ki refers to a measure of affinity in units of concentration, obtained from inhibition or displacement. `CCNC(=O)c1cc2c(-c3cc(C(O)(CC)CC(C)C)cnc3Oc3c(C)cccc3C)cn(C)c(=O)c2[nH]1` (stereo not shown) [Example 10, 4-[2-(2,6-dimethylphenoxy)-5-(3-hydroxy-5-methylhexan-3-yl)pyridin-3-yl]-N-ethyl-6-methyl-7-oxo-6,7-dihydro-1H-pyrrolo[2,3-c]pyridine-2-carboxamide]: the Ki is 715 nM on BRD4 (BDI_K57-E168) and 5.4 nM at BRD4 (BDII_E352-M457).

For `CCNC(=O)c1cc2c(-c3cc(C(C)(C)O)ccc3Oc3c(C)cc(C(C)(C)O)cc3C)cn(C)c(=O)c2[nH]1` [Example 107, N-ethyl-4-{5-(2-hydroxypropan-2-yl)-2-[4-(2-hydroxypropan-2-yl)-2,6-dimethylphenoxy]phenyl}-6-methyl-7-oxo-6,7-dihydro-1H-pyrrolo[2,3-c]pyridine-2-carboxamide], the Ki is 231 nM at BRD4 (BDI_K57-E168) and 0.8 nM on BRD4 (BDII_E352-M457).

Consider `CCNC(=O)c1cc2c(-c3cc(C(O)(C(C)C)C4CC4)cnc3Oc3c(C)cccc3C)cn(C)c(=O)c2[nH]1` (stereo not shown) [Example 26, 4-[5-(1-cyclopropyl-1-hydroxy-2-methylpropyl)-2-(2,6-dimethylphenoxy)pyridin-3-yl]-N-ethyl-6-methyl-7-oxo-6,7-dihydro-1H-pyrrolo[2,3-c]pyridine-2-carboxamide], for which the figures for the Ki at BRD4 (BDI_K57-E168) and at BRD4 (BDII_E352-M457) were 15 nM and 1.5 nM, respectively.

For `Cc1cccc(Cl)c1Oc1ncc(C(C)(C)O)cc1-c1cn(C)c(=O)c2[nH]c(C(=O)NC34CC(C3)C4)cc12` [Example 63, N-(bicyclo[1.1.1]pentan-1-yl)-4-[2-(2-chloro-6-methylphenoxy)-5-(2-hydroxypropan-2-yl)pyridin-3-yl]-6-methyl-7-oxo-6,7-dihydro-1H-pyrrolo[2,3-c]pyridine-2-carboxamide], the inhibitory constant (Ki) on BRD4 (BDI_K57-E168) is 406 nM; on BRD4 (BDII_E352-M457) it was 1.5 nM.

For `CCNC(=O)c1cc2c(-c3cc(C(O)(C(F)(F)F)C(F)(F)F)cnc3Oc3c(C)cc(F)cc3C)cn(C)c(=O)c2[nH]1` [Example 80, N-ethyl-4-[2-(4-fluoro-2,6-dimethylphenoxy)-5-(1,1,1,3,3,3-hexafluoro-2-hydroxypropan-2-yl)pyridin-3-yl]-6-methyl-7-oxo-6,7-dihydro-1H-pyrrolo[2,3-c]pyridine-2-carboxamide], the Ki is 486 nM on BRD4 (BDI_K57-E168) and 5.2 nM on BRD4 (BDII_E352-M457).

Turning to `CCNC(=O)c1cc2c(-c3cc(C(C)(C)O)ccc3Oc3c(C)cc(Cl)cc3C)cn(C)c(=O)c2[nH]1` [Example 84, 4-[2-(4-chloro-2,6-dimethylphenoxy)-5-(2-hydroxypropan-2-yl)phenyl]-N-ethyl-6-methyl-7-oxo-6,7-dihydro-1H-pyrrolo[2,3-c]pyridine-2-carboxamide], the inhibition constant (Ki) at BRD4 (BDI_K57-E168) is 610 nM; at BRD4 (BDII_E352-M457), 1.9 nM.

`CCNC(=O)c1cc2c(-c3cc(C(C)(C)O)cnc3Oc3c(C)cc(F)cc3Cl)cn(C)c(=O)c2[nH]1` [Example 52, 4-[2-(2-chloro-4-fluoro-6-methylphenoxy)-5-(2-hydroxypropan-2-yl)pyridin-3-yl]-N-ethyl-6-methyl-7-oxo-6,7-dihydro-1H-pyrrolo[2,3-c]pyridine-2-carboxamide]: the inhibition constant (Ki) at BRD4 (BDI_K57-E168) is 325 nM; at BRD4 (BDII_E352-M457), 0.9 nM.

As to `CCNC(=O)c1cc2c(-c3cc(C(O)(CC)C4CCCC4)cnc3Oc3c(C)cccc3C)cn(C)c(=O)c2[nH]1` (stereo not shown) [Example 11, 4-[5-(1-cyclopentyl-1-hydroxypropyl)-2-(2,6-dimethylphenoxy)pyridin-3-yl]-N-ethyl-6-methyl-7-oxo-6,7-dihydro-1H-pyrrolo[2,3-c]pyridine-2-carboxamide], the Ki on BRD4 (BDI_K57-E168) is 170 nM; at BRD4 (BDII_E352-M457), 2.6 nM.

As to `Cc1cc(F)cc(Cl)c1Oc1ncc(C(C)(C)O)cc1-c1cn(C)c(=O)c2[nH]c(C(=O)NC3(C)CC3(F)F)cc12` (stereo not shown) [Example 62, 4-[2-(2-chloro-4-fluoro-6-methylphenoxy)-5-(2-hydroxypropan-2-yl)pyridin-3-yl]-N-(2,2-difluoro-1-methylcyclopropyl)-6-methyl-7-oxo-6,7-dihydro-1H-pyrrolo[2,3-c]pyridine-2-carboxamide], the inhibition constant Ki on BRD4 (BDI_K57-E168) was 1110 nM; at BRD4 (BDII_E352-M457) it was 10.2 nM.

Turning to `CCNC(=O)c1cc2c(-c3cc(C(C)(C)O)cnc3Oc3c(C)cccc3C)cn(C)c(=O)c2[nH]1` [Example 1, 4-[2-(2,6-dimethylphenoxy)-5-(2-hydroxypropan-2-yl)pyridin-3-yl]-N-ethyl-6-methyl-7-oxo-6,7-dihydro-1H-pyrrolo[2,3-c]pyridine-2-carboxamide], the results for the Ki at BRD4 (BDI_K57-E168) and on BRD4 (BDII_E352-M457) were 462 nM and 2.3 nM, respectively.

`CCNC(=O)c1cc2c(-c3cc(C4(O)CCOCC4)ccc3Oc3c(C)cc(F)cc3C)cn(C)c(=O)c2[nH]1` [Example 129, N-ethyl-4-[2-(4-fluoro-2,6-dimethylphenoxy)-5-(4-hydroxyoxan-4-yl)phenyl]-6-methyl-7-oxo-6,7-dihydro-1H-pyrrolo[2,3-c]pyridine-2-carboxamide]: the inhibition constant (Ki) at BRD4 (BDI_K57-E168) was 649 nM; at BRD4 (BDII_E352-M457), 2.3 nM.

`CCNC(=O)c1cc2c(-c3cc(C(C)(O)C(C)CC)cnc3Oc3c(C)cccc3C)cn(C)c(=O)c2[nH]1` (stereo not shown) [Example 20, 4-[2-(2,6-dimethylphenoxy)-5-(2-hydroxy-3-methylpentan-2-yl)pyridin-3-yl]-N-ethyl-6-methyl-7-oxo-6,7-dihydro-1H-pyrrolo[2,3-c]pyridine-2-carboxamide]: the results for the inhibitory constant (Ki) at BRD4 (BDI_K57-E168) and at BRD4 (BDII_E352-M457) were 363 nM and 3.1 nM, respectively.

On to `CCNC(=O)c1cc2c(-c3nc(C(C)(C)O)ccc3Oc3c(C)cc(F)cc3C)cn(C)c(=O)c2[nH]1` [Example 96, N-ethyl-4-[3-(4-fluoro-2,6-dimethylphenoxy)-6-(2-hydroxypropan-2-yl)pyridin-2-yl]-6-methyl-7-oxo-6,7-dihydro-1H-pyrrolo[2,3-c]pyridine-2-carboxamide], for which the Ki on BRD4 (BDI_K57-E168) was 801 nM; at BRD4 (BDII_E352-M457) it was 9.1 nM.

Take `CCNC(=O)c1cc2c(-c3cc(C(C)(C)O)cnc3-c3ccc(F)cc3F)cn(C)c(=O)c2[nH]1` [Example 89, 4-[2-(2,4-difluorophenyl)-5-(2-hydroxypropan-2-yl)pyridin-3-yl]-N-ethyl-6-methyl-7-oxo-6,7-dihydro-1H-pyrrolo[2,3-c]pyridine-2-carboxamide]: the inhibition constant (Ki) was 281 nM on BRD4 (BDI_K57-E168) and 1.7 nM on BRD4 (BDII_E352-M457).

For the molecule `Cc1cc(F)cc(Cl)c1Oc1ccc(C(C)(O)CO)cc1-c1cn(C)c(=O)c2[nH]c(C(=O)NC(C)(C)C)cc12` (stereo not shown) [Example 118, N-tert-butyl-4-[2-(2-chloro-4-fluoro-6-methylphenoxy)-5-(1,2-dihydroxypropan-2-yl)phenyl]-6-methyl-7-oxo-6,7-dihydro-1H-pyrrolo[2,3-c]pyridine-2-carboxamide], the results for the Ki on BRD4 (BDI_K57-E168) and at BRD4 (BDII_E352-M457) were 1390 nM and 10.4 nM, respectively.

With `Cc1cc(F)cc(C)c1Oc1ccc(C(C)(C)O)nc1-c1cn(C)c(=O)c2[nH]c(C(=O)NC(C)(C)C)cc12` [Example 97, N-tert-butyl-4-[3-(4-fluoro-2,6-dimethylphenoxy)-6-(2-hydroxypropan-2-yl)pyridin-2-yl]-6-methyl-7-oxo-6,7-dihydro-1H-pyrrolo[2,3-c]pyridine-2-carboxamide], the inhibition constant Ki at BRD4 (BDI_K57-E168) is 657 nM; on BRD4 (BDII_E352-M457), 24.7 nM.

Turning to `CCNC(=O)c1cc2c(-c3cc(C(C)(O)CF)ccc3Oc3c(C)cc(Cl)cc3C)cn(C)c(=O)c2[nH]1` (stereo not shown) [Example 88, 4-[2-(4-chloro-2,6-dimethylphenoxy)-5-(1-fluoro-2-hydroxypropan-2-yl)phenyl]-N-ethyl-6-methyl-7-oxo-6,7-dihydro-1H-pyrrolo[2,3-c]pyridine-2-carboxamide], the inhibition constant (Ki) at BRD4 (BDI_K57-E168) is 389 nM; on BRD4 (BDII_E352-M457), 1.1 nM.

As to `Cc1cc(F)cc(C)c1Oc1ccc(C(C)(O)CF)cc1-c1cn(C)c(=O)c2[nH]c(C(=O)NC(C)(C)C)cc12` (stereo not shown) [Example 87, N-tert-butyl-4-[2-(4-fluoro-2,6-dimethylphenoxy)-5-(1-fluoro-2-hydroxypropan-2-yl)phenyl]-6-methyl-7-oxo-6,7-dihydro-1H-pyrrolo[2,3-c]pyridine-2-carboxamide], the Ki is 501 nM on BRD4 (BDI_K57-E168) and 2.8 nM on BRD4 (BDII_E352-M457).

`Cc1cccc(C(F)(F)F)c1Oc1ccc(C(C)(C)O)cc1-c1cn(C)c(=O)c2[nH]c(C(=O)NC(C)(C)C)cc12` [Example 54, N-tert-butyl-4-{5-(2-hydroxypropan-2-yl)-2-[2-methyl-6-(trifluoromethyl)phenoxy]phenyl}-6-methyl-7-oxo-6,7-dihydro-1H-pyrrolo[2,3-c]pyridine-2-carboxamide]: the Ki is 4520 nM on BRD4 (BDI_K57-E168) and 6 nM at BRD4 (BDII_E352-M457).

On to `Cc1cccc(Cl)c1Oc1ncc(C(C)(C)O)cc1-c1cn(C)c(=O)c2[nH]c(C(=O)NC3(C)CC3(F)F)cc12` (stereo not shown) [Example 39, 4-[2-(2-chloro-6-methylphenoxy)-5-(2-hydroxypropan-2-yl)pyridin-3-yl]-N-(2,2-difluoro-1-methylcyclopropyl)-6-methyl-7-oxo-6,7-dihydro-1H-pyrrolo[2,3-c]pyridine-2-carboxamide], for which the Ki was 640 nM on BRD4 (BDI_K57-E168) and 11.3 nM on BRD4 (BDII_E352-M457).
